Test results reported in US20030186943A1, “Substituted gamma-phenyl-delta-lactams and uses related thereto” (Inflazyme Pharmaceuticals Ltd., priority 1998, published 2003).
“And” between values parts separate entries of the source, which are not always exact repeats. Equal values may be shown once. Read-outs that look alike come from different tables or passages of the source.

Key:
[1] = system: TNBS-induced colitis in the rat; assay: TNBS-induced colitis model of inflammatory bowel disease in the rat;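 further: rat colitis induced by intracolonic TNBS in 50% ethanol, distal colon assessed at sacrifice on day 7, with saline-instilled vehicle-treated rats as controls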
Protocol: Colitis was induced by intracolonic instillation of the hapten TNBS (60 mg/mL) in 0.5 mL of 50% ethanol. […] An additional group of rats received saline intracolonically in place of TNBS/ethanol and was treated with vehicle at the same times as outlined above. Body weights were recorded at the beginning of the study and at days 2 and 7.
The rats were sacrificed on the 7th day after the induction of colitis and the extent of damage and inflammation was assessed. After the rats were sacrificed, the distal colon was removed and pinned out on a wax platform. The presence or absence of diarrhea was noted, as well as the presence and severity of adhesions between the colon and other organs, and the severity and extent of colonic damage. […] After scoring, a sample of colonic tissue was excised for measurement of myeloperoxidase activity as an index of granulocyte infiltration (see Wallace et al., Gastroenterology 117: in press, 1999; and Morris et al., Gastroenterology 96:795-803, 1989). This tissue sample was 1 cm long (along the axis of the colon) and 5 mm wide and was taken from a region of macroscopically visible damage (or the corresponding region in any rats in which there was no damage). The remainder of the tissue was fixed in neutral buffered formalin and processed by routine methods for subsequent evaluation by light microscopy. In a blinded manner, the sample of colonic tissue from each rat was examined for evidence of mucosal ulceration and inflammation. The percentage of the luminal surface of the section in which ulceration was present was calculated.

[2] = system: primary human neutrophils; assay: Generation of reactive oxygen species by fMLP-activated neutrophils (luminol-enhanced chemiluminescence); format: cell-based; details: Neutrophil
Description: Neutrophil activation can be measured by quantitation of ROS generated in vitro. Measurement of ROS allows specific quantitation of a pro-inflammatory species and is also a general measure of neutrophil activation. The most sensitive method for measuring the production of ROS by neutrophils is luminol-enhanced chemiluminescence. […] The assay system used to evaluate the ability of compounds to inhibit ROS generation in neutrophils is indicative of anti-inflammatory activity that may be efficacious in disease states including but not limited to rheumatoid arthritis and inflammatory bowel disease.
Freshly isolated primary human neutrophils (5×10^6 cells/mL) were incubated with the required concentrations of compound or vehicle for 30 minutes at 37° C. in HBSS buffer (pH 7.4) containing Ca^2+. 100 nM wortmannin was used as a positive control. Aliquots of each sample were transferred to a microtitre plate to which luminol (1 μM); obtained from Sigma; Catalogue No. A8511 is added. Activation of the neutrophils was immediately initiated by addition of (1 μM) fMLP; obtained from Sigma, Catalogue No. F3506. Light output from each well was recorded for 30 minutes in a microplate luminometer. Total light output (integral of the time-course) was determined for each well. Inhibitory activities of test drugs against neutrophil ROS generation is expressed as percentage activity relative to a no drug control (100% activation or generation of ROS) containing 0.25% DMSO. Concentration of test compound required to inhibit the generation of ROS to 50% of control values (IC50's) were determined from concentration-response curves by non-linear regression analysis.

[3] = system: High Affinity Rolipram Binding Site of PDE4 in Mouse Brain; assay: Displacement of [3H]-rolipram from its high affinity binding site (HARBS); details: ratio of IC50 for PDE4 catalytic activity to concentration displacing 50% of rolipram from HARBS
Protocol: Suspension was centrifuged twice at 30,000×G at 4° C. and the supernatant discarded. The pellet was resuspended in buffer, and adjusted to a protein concentration of 0.5 mg/mL. Drugs to be tested were dissolved in DMSO and pipetted in triplicate into a 96 well microplate at concentrations ranging from 1 to 30,000 nM. […] The plate was incubated at 4° C. for 1 hour. Contents of the plate were aspirated through a Whatman GF/C filterplate, and rinsed with 4×200 μL ice-cold buffer. […] Triplicate determinations were performed at each concentration.

[4] = system: cAMP response element luciferase activity in human U937 monocytic cells; assay: Potentiation of forskolin-induced CRE-luciferase activity in U937 cells; format: cell-based; details: U-937, U937 cells co-incubated with 10 μM forskolin, 4 hours, X marks this range
Protocol: Compounds of the present invention were thereby shown to provide potentiated luciferase expression in U937 cells treated with the adenylyl cyclase activator forskolin.
Human pro-monocytic U937 cells were maintained in RPMI medium containing 10% FCS and 2 mM […]. U937 cells were transiently transfected as described in Biotechniques Vol. 17(6):1058, 1994. Briefly, cells were grown in medium containing serum to a density of 5×10^6 cells/mL and then resuspended in media containing serum at a density of approximately 1×10^7 cells/mL. 400 μL of cells were transferred into the electroporation cuvette containing 10 μg of the reporter vector (PCRE-luc) in a volume of 40 μL H2O. Reporter vector DNA was prepared from DH5α E. coli using the DNA […] free kit (Qiagen) as per manufacturers instructions. U937 cells were clectroporated at room temperature using a BIORAD electroporator. Capacitance was set to 1050 μF and voltage was 280V. The time constant was noted after each electroporation. Cells were then diluted in 4 mL of media and serum and 200 μL of cells were plated per well. Cells were allowed to recover for 16-18 hours. Cells were then treated with a test compound or vehicle in the presence or absence of 10 μM forskolin for 4 hours at 37° C.
The luciferase assay was performed as per manufacturers instructions (Tropix). Briefly, cells were centrifuged for 4 minutes at 1200 rpm and media supernatant was removed. Cell pellets were lysed in 15 μL Lysis buffer (Tropix). Luciferase assay was performed using 10 μL of cell lysate with 10 μL of buffer A and 25 μL buffer B. Luciferase activity was obtained using a luminometer with a 5-second delay followed by a read time of 10 seconds.

[5] = molecular target: T1, cAMP phosphodiesterase 3 from human platelets (Homo sapiens, UniProt Q14432); assay: Inhibition of cAMP phosphodiesterase 3 from human platelets; format: biochemical; details: for IC50: PDE3, platelet cell extract, X marks this range
T1 construct: from tissue; host or cells: human platelets, cytoplasmic extract
T1 sequence (Q14432 whole entry): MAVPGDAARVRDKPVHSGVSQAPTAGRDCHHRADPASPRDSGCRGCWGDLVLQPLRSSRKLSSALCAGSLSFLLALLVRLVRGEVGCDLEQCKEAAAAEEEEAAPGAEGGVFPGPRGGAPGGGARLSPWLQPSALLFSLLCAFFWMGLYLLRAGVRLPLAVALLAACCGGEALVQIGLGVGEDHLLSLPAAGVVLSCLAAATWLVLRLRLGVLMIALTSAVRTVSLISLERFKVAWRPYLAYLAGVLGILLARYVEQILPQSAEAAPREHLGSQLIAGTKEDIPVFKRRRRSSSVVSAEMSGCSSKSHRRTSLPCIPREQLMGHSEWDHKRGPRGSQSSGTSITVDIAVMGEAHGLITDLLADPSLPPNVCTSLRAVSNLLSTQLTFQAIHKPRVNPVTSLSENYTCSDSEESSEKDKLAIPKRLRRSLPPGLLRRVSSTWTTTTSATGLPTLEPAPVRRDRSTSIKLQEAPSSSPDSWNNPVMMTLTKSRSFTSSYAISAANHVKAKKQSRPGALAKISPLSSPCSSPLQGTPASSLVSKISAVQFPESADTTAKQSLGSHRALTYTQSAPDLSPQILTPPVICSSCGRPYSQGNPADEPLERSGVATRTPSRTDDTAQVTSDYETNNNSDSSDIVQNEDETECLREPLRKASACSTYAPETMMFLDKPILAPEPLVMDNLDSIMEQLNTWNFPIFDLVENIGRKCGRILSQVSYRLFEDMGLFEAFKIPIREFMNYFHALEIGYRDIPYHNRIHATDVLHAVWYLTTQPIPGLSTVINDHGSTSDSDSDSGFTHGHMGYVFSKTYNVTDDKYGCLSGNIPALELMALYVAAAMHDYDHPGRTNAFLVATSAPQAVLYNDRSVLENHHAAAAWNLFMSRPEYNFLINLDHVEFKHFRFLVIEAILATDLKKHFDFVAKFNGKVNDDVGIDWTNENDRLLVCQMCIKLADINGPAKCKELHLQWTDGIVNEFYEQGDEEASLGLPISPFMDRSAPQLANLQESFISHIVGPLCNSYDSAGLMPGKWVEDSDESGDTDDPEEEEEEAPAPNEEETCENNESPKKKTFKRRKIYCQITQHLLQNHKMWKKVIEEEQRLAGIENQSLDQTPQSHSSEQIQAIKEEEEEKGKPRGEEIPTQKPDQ
Description: Compound 12 was screened for activity against 5 of the major classes of mammalian cyclic nucleotide phosphodiesterase (termed PDE 1 through 5). PDE's 1 through 4 utilize cAMP as substrate while PDE 5 uses cGMP. The broad specificity PDE inhibitor 3-isobutyl-1-methylxanthine (IBMX; Sigma; Catalogue No. 17018)) was used as a positive control in all assays. PDE's for the various assays were partially purified from the following cells/tissues; PDE 1 (bovine heart), PDE 2 (human platelets), PDE 3 (human platelets), PDE 4 (human promonocytic U937 cells) and PDE 5 (human platelets).
Platelet cell extracts were prepared as described above for the U937 cells. The PDE3 assay was performed using platelet cell extract as described above for the PDE 4 assay. Platelets contain PDE 2, 3 and 5. However PDE2 and 5 preferentially utilize cGMP, so in an assay with cAMP as a substrate they are not detected.

[6] = 100 mg/kg intracolonically at 12 h intervals for one week
[7] = 100 mg/kg intracolonically at 12 h intervals for one week, day 7
[8] = read-out: IC50 RANGE (μM) >100, ROS production, X marks this range
[9] = read-out: IC50 range (μM) 10-100
[10] = read-out: IC50 RANGE (μM) <1, ROS production, X marks this range
[11] = read-out: EC50 range (μM) 0.1-1

Nc1ccc(O)c(C(=O)O)c1 [Compound 5-ASA, 5-aminosalicylic acid]
Body Weight Change (%) [1, 6]: −20.2 ± 3.4%
Mortality [1, 6]: 0/8
Adhesion (Incidence) [1, 7]: (7/8)
Adhesion Score [1, 7]: 1.4 ± 0.3
Bowel Thickness (mm) [1, 7]: 2.66 ± 0.69 mm
Damage Score [1, 7]: 6.3 ± 0.8
Global Colitis Score [1, 7]: 10.41 ± 1.58
loss of body weight ([1]; 100 mg/kg, one-week study): ~20%
MPO Activity (U/mg) ([1]; colonic tissue, 100 mg/kg intracolonically at 12 h intervals for one week, day 7): 67.5 ± 8.8 U/mg
Diarrhea ([1]; incidence, 100 mg/kg intracolonically at 12 h intervals for one week, day 7, 100 mg/kg): significantly reduce and 1/8
Histology Score ([1]; percentage of luminal surface ulcerated, 100 mg/kg intracolonically for one week, day 7): 91.4 ± 5.9

COc1ccc([C@H]2COC(=O)C(Cc3ccc(OCc4ccccc4)c(OC)c3)C2)cc1OC (stereo partly drawn) [Compound 22]
IC50 [2, 8]: > 100 µM
PDE4:HARBS [3]: <1
EC50 ([4]; read-out: EC50 range (μM) 1-25): 1 to 25 µM
IC50 [5]: > 100 µM

COc1ccc([C@@H]2CCC(=O)NC2)cc1OC [Compound 46]
IC50 ([2]; ROS production, X marks this range, read-out: IC50 RANGE (μM) 10-100): 10 to 100 µM
PDE4:HARBS [3]: >1
EC50 ([4]; read-out: EC50 range (μM) 1-25): 1 to 25 µM
IC50 [5]: > 100 µM

COc1ccc([C@@H]2CCC(=O)N(Cc3ccccc3)C2)cc1OC [Compound 47]
IC50 ([2]; ROS production, X marks this range, read-out: IC50 RANGE (μM) 1-10): 1 to 10 µM
EC50 ([4]; read-out: EC50 range (μM) 1-25): 1 to 25 µM
IC50 [5, 9]: 10 to 100 µM

COc1ccc([C@@H]2CCC(=O)NC2)cc1OC1CCCC1 [Compound 58]
IC50 [2, 10]: < 1 µM
PDE4:HARBS [3]: >1
EC50 [4, 11]: 0.1 to 1 µM
IC50 [5]: > 100 µM

COc1ccc([C@H]2COC(=O)C(Cc3ccc(F)c(F)c3)C2)cc1OC (stereo partly drawn) [Compound 77]
IC50 [2, 8]: > 100 µM
EC50 ([4]; read-out: EC50 range (μM) 1-25): 1 to 25 µM
IC50 [5, 9]: 10 to 100 µM

COc1ccc([C@H]2COC(=O)C(Cc3ccc(O)c(O)c3)C2)cc1OC (stereo partly drawn) [Compound 80]
IC50 [2, 10]: < 1 µM
EC50 ([4]; read-out: EC50 range (μM) 1-25): 1 to 25 µM
IC50 [5, 9]: 10 to 100 µM

COc1ccc([C@H]2COC(=O)C(C)C2)cc1OC1CCCC1 (stereo partly drawn) [Compound 95]
IC50 [5]: > 100 µM

C=CCC1C[C@@H](c2ccc(OC)c(OC3CCCC3)c2)COC1=O (stereo partly drawn) [Compound 96]
IC50 [5]: > 100 µM

COc1ccc([C@H]2COC(=O)C(Cc3ccc(O)c(N)c3)C2)cc1Cc1ccccc1 (stereo partly drawn) [Compound 114]
IC50 [5]: > 100 µM

COc1ccc([C@H]2COC(=O)C(Cc3cccc(O)c3)C2)cc1OC (stereo partly drawn) [Compound 131]
IC50 [2, 10]: < 1 µM
EC50 ([4]; read-out: EC50 range (μM) 1-25): 1 to 25 µM
IC50 [5]: > 100 µM

COc1ccc([C@H]2COC(=O)C(Cc3ccccc3)C2)cc1OC (stereo partly drawn) [Compound 139]
IC50 [2, 8]: > 100 µM
EC50 ([4]; read-out: EC50 range (μM) 1-25): 1 to 25 µM
IC50 [5]: > 100 µM

CCOc1cc(C2CCC(=O)OC2)ccc1OC (stereo not drawn) [Compound 153]
IC50 [2, 10]: < 1 µM
PDE4:HARBS [3]: >1
EC50 ([4]; read-out: EC50 range (μM) 1-25): 1 to 25 µM

CCCOc1cc(C2CCC(=O)OC2)ccc1OC (stereo not drawn) [Compound 154]
IC50 [2, 10]: < 1 µM
PDE4:HARBS [3]: >1
EC50 ([4]; read-out: EC50 range (μM) 1-25): 1 to 25 µM

COc1ccc([C@@H]2CCC(=O)OC2)cc1OCC1CCCCC1 [Compound 158]
PDE4:HARBS [3]: <1
EC50 [4, 11]: 0.1 to 1 µM
IC50 [5]: > 100 µM

CCCCCOc1cc([C@@H]2CCC(=O)OC2)ccc1OC [Compound 159]
PDE4:HARBS [3]: >1
EC50 ([4]; read-out: EC50 range (μM) >25): > 25 µM
IC50 [5]: > 100 µM

CCCCCCOc1cc([C@@H]2CCC(=O)OC2)ccc1OC [Compound 160]
PDE4:HARBS [3]: <1
EC50 ([4]; read-out: EC50 range (μM) 1-25): 1 to 25 µM
IC50 [5]: > 100 µM

CCCCCCCOc1cc([C@@H]2CCC(=O)OC2)ccc1OC [Compound 161]
PDE4:HARBS [3]: <1
EC50 ([4]; read-out: EC50 range (μM) >25): > 25 µM
IC50 [5]: > 100 µM

CCCCCCCCOc1cc([C@@H]2CCC(=O)OC2)ccc1OC [Compound 162]
EC50 ([4]; read-out: EC50 range (μM) >25): > 25 µM
IC50 [5]: > 100 µM

COc1ccc([C@H]2COC(=O)C(Cc3cccc(C(F)(F)F)c3)C2)cc1OC1CCCC1 (stereo partly drawn) [Compound 169]
PDE4:HARBS [3]: <1

COc1ccc([C@H]2COC(=O)C(Cc3ccc4c(c3)OCO4)C2)cc1OC1CCCC1 (stereo partly drawn) [Compound 171]
PDE4:HARBS [3]: <1

COc1ccc([C@H]2COC(=O)C(Cc3cccc(OCc4ccccc4)c3)C2)cc1OC1CCCC1 (stereo partly drawn) [Compound 172]
PDE4:HARBS [3]: <1

COc1ccc([C@H]2COC(=O)C(Cc3ccc(C)c([N+](=O)[O-])c3)C2)cc1OC1CCCC1 (stereo partly drawn) [Compound 176]
PDE4:HARBS [3]: >1

COc1ccc(CC2C[C@@H](c3ccc(OC)c(OC4CCCC4)c3)COC2=O)cc1O (stereo partly drawn) [Compound 180]
PDE4:HARBS [3]: >1

COc1ccc([C@H]2COC(=O)C(Cc3cccc(O)c3)C2)cc1OC1CCCC1 (stereo partly drawn) [Compound 182]
PDE4:HARBS [3]: <1

COc1ccc([C@H]2COC(=O)C(Cc3ccc(O)cc3)C2)cc1OC1CCCC1 (stereo partly drawn) [Compound 183]
PDE4:HARBS [3]: <1

COc1ccc([C@H]2COC(=O)C(Cc3ccc(N)cc3)C2)cc1OC1CCCC1 (stereo partly drawn) [Compound 185]
PDE4:HARBS [3]: >1

COc1ccc(N)cc1CC1C[C@@H](c2ccc(OC)c(OC3CCCC3)c2)COC1=O (stereo partly drawn) [Compound 186]
PDE4:HARBS [3]: >1

COc1ccc([C@H]2COC(=O)C(Cc3ccc(C)c(N)c3)C2)cc1OC1CCCC1 (stereo partly drawn) [Compound 187]
PDE4:HARBS [3]: >1

COc1cc2c(cc1OC)-c1c/c(=N\c3c(C)cc(C)cc3C)n(C)c(=O)n1CC2 [trequinsin, reference compound]
effect in PDE3 assay ([5]; platelet cell extract, cAMP as substrate): potent inhibitor
